This is an account of results in patent publication US20170253601A1, “Substituted Pyrrolidine Compounds” (EPIZYME, INC., priority 2014, published 2017).

Each structure is given as a SMILES string. Bounds are passed on as bounds.

In the test the target is T1, SMYD2 (Homo sapiens, UniProt Q9NRG4).
T1 construct: Full length SMYD2 (NP 064582.2) was cloned; His6 (N, cleaved yes); FLAG (N); made in house; host or cells: Sf9 insect cells
T1 sequence (Q9NRG4 whole entry): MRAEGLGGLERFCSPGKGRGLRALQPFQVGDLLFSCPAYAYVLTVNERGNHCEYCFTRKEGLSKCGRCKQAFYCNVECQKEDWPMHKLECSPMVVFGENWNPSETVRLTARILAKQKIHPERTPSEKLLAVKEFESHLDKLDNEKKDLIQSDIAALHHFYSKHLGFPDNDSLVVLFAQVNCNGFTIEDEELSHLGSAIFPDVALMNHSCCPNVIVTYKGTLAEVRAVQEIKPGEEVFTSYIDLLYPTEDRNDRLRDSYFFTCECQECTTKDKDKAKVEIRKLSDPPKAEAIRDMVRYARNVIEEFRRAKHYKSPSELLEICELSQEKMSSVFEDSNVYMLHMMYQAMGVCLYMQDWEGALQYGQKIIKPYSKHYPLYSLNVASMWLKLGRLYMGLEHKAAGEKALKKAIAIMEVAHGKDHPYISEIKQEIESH
The test can be described thus: SMYD2 Biochemical Assay (3H-SAM, biotinylated peptide substrate, Flashplate). The following applies: Table 1; average of n = 1 to n = 50; read-out: SMYD2 Biochem IC50. Summed up:
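Full-length His/FLAG-tagged SMYD2 expressed in Sf9 cells with tag cleaved, 1.5 nM, pre-incubated 30 min at room temperature with compound, then 10 nM 3H-SAM and 60 nM biotinylated peptide added. Buffer 20 mM Bicine pH 7.6, 1 mM TCEP, 0.005% BSG, 0.002% Tween20, 2% DMSO. Stopped with 600 uM cold SAM; 3H-peptide captured on streptavidin Flashplate; IC50 by curve fit.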
Take `CC1CC(NC(=O)c2cc(C3CC3)on2)C(=O)N1c1ccccc1` (centres unmarked) [compound 11, 5-cyclopropyl-N-(5-methyl-2-oxo-1-phenylpyrrolidin-3-yl)isoxazole-3-carboxamide]: the IC50 is greater than 50 µM.

Turning to `CC(=O)Nc1ccc(S(=O)(=O)N2CC[C@@H](NC(=O)c3cc(C4CC4)on3)C2)cc1` [compound 2, (R)-N-(1-((4-acetamido-phenyl)sulfonyl)pyrrolidin-3-yl)-5-cyclopropyl-isoxazole-3-carboxamide], the IC50 was greater than 50 µM.

`CN1CCC(NC(=O)c2cc(C3CC3)on2)C1c1ccc(F)c(F)c1` (centres unmarked) [compound 9, 5-cyclopropyl-N-(2-(3,4-difluorophenyl)-1-methylpyrrolidin-3-yl)isoxazole-3-carboxamide]: the IC50 was greater than 50 µM.

For `CN1CCC(NC(=O)c2cc(C3CC3)on2)C1c1ccc(F)cc1` (centres unmarked) [compound 13, 5-cyclopropyl-N-(2-(4-fluorophenyl)-1-methylpyrrolidin-3-yl)isoxazole-3-carboxamide], the IC50 was greater than 50 µM.

For `O=C(N[C@H]1CCNC1)c1cc(C2CC2)on1` [compound 3, (S)-5-cyclopropyl-N-(pyrrolidin-3-yl)isoxazole-3-carboxamide], the IC50 came to 48.6 µM.

Turning to `NCCCS(=O)(=O)N1CC[C@H](NC(=O)c2cc(C3CC3)on2)C1` [compound 35, (S)-N-(1-((3-amino-propyl)sulfonyl)pyrrolidin-3-yl)-5-cyclopropyl-isoxazole-3-carboxamide], the IC50 was greater than 50 µM.

With `CN1C[C@H](NC(=O)c2cc(C3CC3)on2)[C@H](c2ccccc2)C1` (racemic) [compound 17, (±)-cis-5-cyclopropyl-N-((1-methyl-4-phenylpyrrolidin-3-yl)isoxazole-3-carboxamide], the IC50 is greater than 50 µM.

For the compound `CN1CCC(NC(=O)c2cc(C3CC3)on2)C1c1ccccc1` (centres unmarked) [compound 5, 5-cyclopropyl-N-(1-methyl-2-phenyl-pyrrolidin-3-yl)isoxazole-3-carboxamide], the IC50 was greater than 50 µM.

On to `CN1CCC(NC(=O)c2cc(C3CC3)on2)C1` (centres unmarked) [compound 29, 5-cyclopropyl-N-(1-methylpyrrolidin-3-yl)isoxazole-3-carboxamide], for which the IC50 is greater than 50 µM.

On to `N[C@H]1CC[C@H](C(=O)N2CC[C@H](NC(=O)c3cc(C4CC4)on3)C2)CC1` [compound 33, N-((S)-1-((1r,4s)-4-aminocyclohexane-1-carbonyl)pyrrolidin-3-yl)-5-cyclopropyl-isoxazole-3-carboxamide], for which the IC50 is greater than 50 µM.

Take `C[C@@H]1C[C@H](NC(=O)c2cc(C3CC3)on2)C(=O)N1c1cnn(C)c1` (racemic) [compound 19, (±)-cis-5-cyclopropyl-N-(5-methyl-1-(1-methyl-1H-pyrazol-4-yl)-2-oxopyrrolidin-3-yl)isoxazole-3-carboxamide]: the IC50 is greater than 50 µM.

For the compound `CN1C(=O)CC(NC(=O)c2cc(C3CC3)on2)C1c1ccc(F)cc1` (centres unmarked) [compound 14, 5-cyclopropyl-N-(2-(4-fluorophenyl)-1-methyl-5-oxopyrrolidin-3-yl)isoxazole-3-carboxamide], the IC50 was greater than 50 µM.

As for `O=C(NC1CCN(Cc2ccccc2)C1=O)c1cc(C2CC2)on1` (centres unmarked) [compound 27, N-(1-benzyl-2-oxopyrrolidin-3-yl)-5-cyclopropylisoxazole-3-carboxamide], the half-inhibitory concentration (IC50) was greater than 50 µM.

`CN1CCC(NC(=O)c2cc(C3CC3)on2)C1c1ccc(Cl)c(F)c1` (centres unmarked) [compound 7, N-(2-(4-chloro-3-fluorophenyl)-1-methylpyrrolidin-3-yl)-5-cyclo-propylisoxazole-3-carboxamide]: the IC50 was greater than 50 µM.

For `CC(c1ccccc1)N1CCC(NC(=O)c2cc(C3CC3)on2)C1` (centres unmarked) [compound 24, 5-cyclopropyl-N-(1-(1-phenylethyl)pyrrolidin-3-yl)isoxazole-3-carboxamide], the IC50 is greater than 50 µM.

As to `Cn1ccc(N2CCC(NC(=O)c3cc(C4CC4)on3)C2=O)n1` (centres unmarked) [compound 15, 5-cyclopropyl-N-(1-(1-methyl-1H-pyrazol-3-yl)-2-oxopyrrolidin-3-yl)isoxazole-3-carboxamide], the IC50 is greater than 50 µM.

Turning to `O=C(NC1CC(=O)N(c2ccccc2)C1)c1cc(C2CC2)on1` (centres unmarked) [compound 25, 5-cyclopropyl-N-(5-oxo-1-phenylpyrrolidin-3-yl)isoxazole-3-carboxamide], the IC50 is greater than 50 µM.

Take `CC1CC(NC(=O)c2cc(C3CC3)on2)CN1Cc1ccccc1` (centres unmarked) [compound 21, N-(1-benzyl-5-methylpyrrolidin-3-yl)-5-cyclopropyl-isoxazole-3-carboxamide]: the IC50 was found to be 44.5 µM.

With `CC1CC(NC(=O)c2cc(C3CC3)on2)CN1C1CC1` (centres unmarked) [compound 22, 5-cyclopropyl-N-(1-cyclopropyl-5-methylpyrrolidin-3-yl)isoxazole-3-carboxamide], the IC50 was greater than 50 µM.

`O=C(N[C@@H]1CCNC1)c1cc(C2CC2)on1` [compound 4, (R)-5-cyclopropyl-N-(pyrrolidin-3-yl)isoxazole-3-carboxamide]: the IC50 is greater than 50 µM.

Take `CC(C)N1CCC(NC(=O)c2cc(C3CC3)on2)C1c1ccc(F)c(F)c1` (centres unmarked) [compound 12, 5-cyclopropyl-N-(2-(3,4-difluorophenyl)-1-isopropylpyrrolidin-3-yl)isoxazole-3-carboxamide]: the IC50 was greater than 50 µM.

Consider `CC1CC(NC(=O)c2cc(C3CC3)on2)CN1c1ccccc1` (centres unmarked) [compound 10, 5-cyclopropyl-N-(5-methyl-1-phenylpyrrolidin-3-yl)isoxazole-3-carboxamide], for which the IC50 was greater than 50 µM.

Turning to `NCCCC(=O)N1CC[C@H](NC(=O)c2cc(C3CC3)on2)C1` [compound 32, (S)-N-(1-(4-amino-butanoyl)pyrrolidin-3-yl)-5-cyclopropyl-isoxazole-3-carboxamide], the IC50 was greater than 50 µM.

Regarding `CC(=O)Nc1ccc(S(=O)(=O)N2CC[C@H](NC(=O)c3cc(C4CC4)on3)C2)cc1` [compound 1, (S)-N-(1-((4-acetamido-phenyl)sulfonyl)pyrrolidin-3-yl)-5-cyclopropyl-isoxazole-3-carboxamide], the IC50 was greater than 50 µM.

With `O=C(NC1CC(=O)N(Cc2ccccc2)C1)c1cc(C2CC2)on1` (centres unmarked) [compound 26, N-(1-benzyl-5-oxopyrrolidin-3-yl)-5-cyclopropylisoxazole-3-carboxamide], the half-inhibitory concentration (IC50) was greater than 50 µM.

Regarding `O=C(NC1CCN(c2ccccc2)C1=O)c1cc(C2CC2)on1` (centres unmarked) [compound 28, 5-cyclopropyl-N-(2-oxo-1-phenyl-pyrrolidin-3-yl)isoxazole-3-carboxamide], the IC50 is greater than 50 µM.

As to `CN1C[C@H](NC(=O)c2cc(C3CC3)on2)[C@@H](c2ccccc2)C1` (racemic) [compound 18, (±)-trans-5-cyclopropyl-N-(1-methyl-4-phenylpyrrolidin-3-yl)isoxazole-3-carboxamide], the IC50 was greater than 50 µM.

As for `NCCCC(=O)N1CC[C@@H](NC(=O)c2cc(C3CC3)on2)C1` [compound 30, (R)-N-(1-(4-amino-butanoyl)pyrrolidin-3-yl)-5-cyclopropyl-isoxazole-3-carboxamide], the IC50 is greater than 50 µM.

Regarding `CC1CN(C2CC2)CC1NC(=O)c1cc(C2CC2)on1` (centres unmarked) [compound 23, 5-cyclopropyl-N-(1-cyclopropyl-4-methylpyrrolidin-3-yl)isoxazole-3-carboxamide], the IC50 was 5.18 µM.

With `NCCCS(=O)(=O)N1CC[C@@H](NC(=O)c2cc(C3CC3)on2)C1` [compound 34, (R)-N-(1-((3-amino-propyl)sulfonyl)pyrrolidin-3-yl)-5-cyclopropyl-isoxazole-3-carboxamide], the IC50 was greater than 50 µM.

Turning to `COc1cccc(C2C(NC(=O)c3cc(C4CC4)on3)CCN2C2CC2)c1` (centres unmarked) [compound 16, 5-cyclopropyl-N-(1-cyclopropyl-2-(3-methoxy-phenyl)pyrrolidin-3-yl)isoxazole-3-carboxamide], the IC50 was greater than 50 µM.

`O=C(NC1CCN(C2CC2)C1c1ccc(F)c(F)c1)c1cc(C2CC2)on1` (centres unmarked) [compound 8, 5-cyclopropyl-N-(1-cyclopropyl-2-(3,4-difluoro-phenyl)pyrrolidin-3-yl)isoxazole-3-carboxamide]: the IC50 is greater than 50 µM.

`Cc1cc(N2CCC(NC(=O)c3cc(C4CC4)on3)C2=O)n(C)n1` (centres unmarked) [compound 6, 5-cyclopropyl-N-(1-(1,3-dimethyl-1H-pyrazol-5-yl)-2-oxopyrrolidin-3-yl)isoxazole-3-carboxamide]: the IC50 is greater than 50 µM.

In the case of `C[C@H]1C[C@H](NC(=O)c2cc(C3CC3)on2)C(=O)N1c1cnn(C)c1` (racemic) [compound 20, (±)-trans 5-cyclopropyl-N-(5-methyl-1-(1-methyl-1H-pyrazol-4-yl)-2-oxopyrrolidin-3-yl)isoxazole-3-carboxamide], the IC50 was greater than 50 µM.

Regarding `N[C@H]1CC[C@H](C(=O)N2CC[C@@H](NC(=O)c3cc(C4CC4)on3)C2)CC1` [compound 31, N-((R)-1-((1r,4r)-4-aminocyclohexane-1-carbonyl)pyrrolidin-3-yl)-5-cyclopropyl-isoxazole-3-carboxamide], the IC50 is greater than 50 µM.

What is called IC50 is the point on the concentration scale where inhibition reaches its midpoint.
